Test results: US4427693A, “Antiinflammatory 4,5-diaryl-α,α-bis (polyhalomethyl)-2-thiophenemethanamines” (E. I. Du Pont de Nemours and Company, priority 1981, dated 1984)
Read-outs that look alike come from different tables or passages of the source.

System: Adjuvant-Induced Arthritis
Experiment: Established Adjuvant-Induced Arthritis in Rats
Type: in vivo, Charles River Lewis male rats
Settings: for ED50: Rattus norvegicus, 168 h, read-out: ED50 = effective dose for 50% decrease from control paw volume
Experimental: A procedure for detecting and comparing the antiinflammatory activity of compounds in this series and standard drugs for which there is a good correlation with human efficacy is the adjuvant-induced arthritis test in rats.
Established Adjuvant-Induced Arthritis in Rats
Charles River Lewis male rats (130-150 grams) are injected subcutaneously in plantar area of the right hind paw with 0.1 ml of adjuvant (Difco heatkilled, lyophilized Mycobacterium butyricum suspended in mineral oil 5 mg/ml). 20 Non-arthritic controls are injected with mineral oil. The animals are held for 2 weeks to allow development of arthritis. Paw volumes (uninjected, left hind paw) are measured and the adjuvant injected rats are culled and distributed to treatment groups of 10 of equal disease severity. Non-arthritic controls are distributed to 2 groups of 10. The rats are given oral doses of compound or PVA-Acacia (Polyvinyl Alcohol 1%, Gum Acacia, U.S.P. 5%, Methylparaben 0.5%) (10 ml/kg) by gavage on that day and on the 6 following days. One day after the last dose the paw volumes (uninjected, left hind paw) are measured using a Ugo Basile Volume Differential Meter Model 7101. [formula]
Dose-response regression lines of the % decrease are plotted on semi-log paper by visual fit and the ED50% decrease from control paw volume is determined by inspection.

[1] = oral by gavage, daily, 7 days, dose-response regression lines, by visual fit

SMILES | ED50 [1] | other results
CC(=O)Oc1ccccc1C(=O)O [Aspirin, reference compound] |  | ED50 (po): 270 mg/kg
COc1ccc(-c2cc(C(N)(C(F)(F)F)C(F)(F)F)sc2-c2ccc(OC)cc2)cc1 [Example 1, 4,5-Bis(4-methoxyphenyl)-α,α-bis(trifluoromethyl)-2-thiophenemethanamine] |  | Percent Decrease From Control Paw Volume (daily oral dose 27 mg/kg, 7 days, p < 0.001 compared to control by Students "t" test): 47%
NC(c1cc(-c2ccc(F)cc2)c(-c2ccc(F)cc2)s1)(C(F)(F)F)C(F)(F)F [Example 2, 4,5-bis(4-fluorophenyl)-α,α-bis(trifluoromethyl)-2-thiophenemethanamine] | 1.3 mg/kg | 
CSc1ccc(-c2sc(C(N)(C(F)(F)F)C(F)(F)F)cc2-c2ccc(F)cc2)cc1 [Example 3, 4-(4-fluorophenyl)-5-(4-methylthiophenyl)-α,α-bis(trifluoromethyl)-2-thiophenemethanamine] | 9 mg/kg | 
NC(c1cc(-c2ccc(F)cc2)c(-c2ccc(Cl)cc2)s1)(C(F)(F)F)C(F)(F)F [Example 4] |  | Percent Decrease From Control Paw Volume (daily oral dose 9 mg/kg, 7 days, p < 0.1 compared to control by Students "t" test): 37%
NC(c1cc(-c2ccccc2)c(-c2ccccc2)s1)(C(F)(F)F)C(F)(F)F [Example 5] | 17 mg/kg | 
NC(c1cc(-c2ccc(F)cc2)c(-c2ccc(F)cc2)s1)(C(F)(F)F)C(F)(F)Cl (stereo not shown) [Example 6] | 3.8 mg/kg | 
NC(c1cc(-c2ccc(F)cc2)c(-c2ccc(F)cc2)s1)(C(F)F)C(F)(F)F (stereo not shown) [Example 7] | 10.5 mg/kg | 
Cc1ccc(-c2cc(C(N)(C(F)(F)F)C(F)(F)F)sc2-c2ccc(C)cc2)cc1 [Example 13] |  | Percent Decrease From Control Paw Volume (daily oral dose 24 mg/kg, 7 days, p < 0.05 compared to control by Students "t" test): 27%
NC(c1cc(-c2ccccc2F)c(-c2ccccc2F)s1)(C(F)(F)F)C(F)(F)F [Example 18] |  | Percent Decrease From Control Paw Volume (daily oral dose 81 mg/kg, 7 days, p < 0.001 compared to control by Students "t" test): 41%
CNC(c1cc(-c2ccc(F)cc2)c(-c2ccc(F)cc2)s1)(C(F)(F)F)C(F)(F)F [Example 28, 1-[4,5-Bis(4-fluorophenyl)thiophen-2-yl]-2,2,2-trifluoro-1-trifluoromethyl-N-methylethanamine] | 6.2 mg/kg | 
COc1ccc2c(c1)c(CC(=O)O)c(C)n2C(=O)c1ccc(Cl)cc1 [Indomethacin, reference compound] |  | ED50 (po): 0.25 mg/kg
CCCCC1C(=O)N(c2ccccc2)N(c2ccccc2)C1=O [Phenylbutazone, reference compound] | 10 mg/kg | 
